How the values were obtained:
[1] = system: pY705-STAT3 in Peripheral Blood Mononuclear Cells (PBMC); experiment: MSD-pSTAT-PBMC Assay (pSTAT3, IL-6 stimulated); type: cell-based, Human; conditions: compound 3 hrs, then 10 ng/mL IL-6 for 10 min
Outline: (§1)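 Human PBMCs were preincubated 3 h with compound, then stimulated 10 min with 10 ng/mL IL-6 (pY705-STAT3) or 1 ng/mL IL-4 (pY641-STAT6). Lysates were read by MSD sandwich immunoassay, capturing total STAT and detecting phospho-STAT. Signal was unstimulated-subtracted and DMSO-normalised, with variable-slope IC50 binned A–D.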

[2] = system: pY641-STAT6 in Peripheral Blood Mononuclear Cells (PBMC); experiment: MSD-pSTAT-PBMC Assay (pSTAT6, IL-4 stimulated); type: cell-based, Human; conditions: compound 3 hrs, then 1 ng/mL IL-4 for 10 min
Outline: as §1

COCCOC(=O)OCOP(=O)(OCOC(=O)OCCOC)C(F)(F)c1ccc2sc(C(=O)N[C@H]3CN(C(C)=O)CC[C@H]4CC[C@@H](C(=O)N(C)c5ccccc5)N4C3=O)cc2c1 [Compound 283, ((((2-(((5S,8S, 10aR)-3-acetyl-8-(methyl (phenyl)carbamoyl)-6-oxodecahydro-pyrrolo[1,2-a][1,5]diazocin-5-yl)carbamoyl)benzo[b]thiophen-5-yl)difluoro-methyl)phos-phoryl)bis(oxy)) bis(methylene) bis(2-methoxyethyl) bis(carbonate)]
IC50 ([1]; Homo sapiens): > 3000 nM | IC50 ([2]; Homo sapiens): 1000 to 3000 nM

CC(=O)N1CC[C@H]2CC[C@@H](C(=O)Nc3ccc(-c4ccccc4)cc3)N2C(=O)[C@@H](NC(=O)/C=C/c2ccc(C(F)(F)P(=O)(OCCSC(=O)CC(C)C)OCCSC(=O)CC(C)C)cc2)C1 [Compound 325, S,S′-(((((4-((E)-3-(((5S,8S, 10aR)-8-([1,1′-biphenyl]-4-ylcarbamoyl)-3-acetyl-6-oxodecahydro-pyrrolo[1,2-a][1,5]diazocin-5-yl)amino)-3-oxoprop-1-en-1-yl)phenyl)difluoro-methyl)phosphoryl)bis(oxy))bis (ethane-2,1-diyl)) bis(3-methylbutane-thioate)]
IC50 ([1]; Homo sapiens): > 3000 nM | IC50 ([2]; Homo sapiens): > 3000 nM

Cc1ccc2[nH]nc(C(=O)N3CC[C@H]4CC[C@@H](C(=O)N(C)C)N4C(=O)[C@@H](NC(=O)c4ccc5ccc(C(F)(F)P(=O)(OCCSC(=O)CC(C)C)OCCSC(=O)CC(C)C)cc5c4)C3)c2c1 [Compound 331, S,S′-(((((7-(((5S,8S,10aR)-8-(dimethylcarbamoyl)-3-(5-methyl-1H-indazole-3-carbonyl)-6-oxodecahydropyrrolo[1,2-a][1,5]diazocin-5-yl)carbamoyl)naphthalen-2-yl)difluoromethyl)phosphoryl)bis(oxy))bis(ethane-2,1-diyl))bis(3-methylbutanethioate)]
IC50 ([1]; Homo sapiens): > 3000 nM | IC50 ([2]; Homo sapiens): ≤ 100 nM

CC(=O)N1CC[C@H]2CC[C@@H](C(=O)N(C)c3ccc(OCCN(C)C)cc3)N2C(=O)[C@@H](NC(=O)c2cc3cc(C(F)(F)P(=O)(OCOC(=O)C(C)(C)C)OCOC(=O)C(C)(C)C)ccc3s2)C1 [Compound 327, ((((2-(((5S,8S, 10aR)-3-acetyl-8-((4-(2-(dimethyl-amino)ethoxy)phenyl) (methyl)carbamoyl)-6-oxodecahydro-pyrrolo[1,2-a][1,5]diazocin-5-yl)carbamoyl)benzo[b]thiophen-5-yl)difluoro-methyl)phos-phoryl)bis(oxy)) bis(methylene) bis(2,2-dimethylpro-panoate)]
IC50 ([1]; Homo sapiens): > 3000 nM | IC50 ([2]; Homo sapiens): > 3000 nM

CCN1CC[C@H]2CC[C@@H](C(=O)N3C[C@@H](C#N)[C@H](c4ccccc4)C3)N2C(=O)[C@@H](NC(=O)c2cc3cc([C@H](F)P(=O)(OCCSC(=O)CC(C)C)OCCSC(=O)CC(C)C)ccc3s2)C1 (single isomer, unassigned) [Compound 339, S,S′-(((((R or S)-(2-(((5S,8S,10aR)-8-((3S,4R or 3R,4S)-3-cyano-4-phenylpyrrolidine-1-carbonyl)-3-ethyl-6-oxodecahydropyrrolo[1,2-a][1,5]diazocin-5-yl)carbamoyl)benzo[b]thiophen-5-yl)fluoromethyl)phosphoryl)bis(oxy))bis(ethane-2,1-diyl))bis(3-methylbutane thioate)]
IC50 ([1]; Homo sapiens): 1000 to 3000 nM | IC50 ([2]; Homo sapiens): 100 to 1000 nM

CC(=O)N1CC[C@H]2CC[C@@H](C(=O)N(C)c3ccccc3)N2C(=O)[C@@H](NC(=O)c2cc3cc(C(F)(F)P(=O)(OCOC(=O)OC(C)C)OCOC(=O)OC(C)C)ccc3s2)C1 [Compound 318, ((((2-(((5S,8S, 10aR)-3-acetyl-8-(methyl (phenyl)carbamoyl)-6-oxodecahydro-pyrrolo[1,2-a][1,5]diazocin-5-yl)carbamoyl)benzo[b]thiophen-5-yl)difluoro-methyl)phos-phoryl)bis(oxy)) bis(methylene) diisopropyl bis(carbonate)]
IC50 ([1]; Homo sapiens): 100 to 1000 nM | IC50 ([2]; Homo sapiens): 100 to 1000 nM

CC(=O)N1CC[C@H]2CC[C@@H](C(=O)NC3CCN(S(C)(=O)=O)CC3)N2C(=O)[C@@H](NC(=O)c2cc3cc(C(F)(F)P(=O)(OCOC(=O)C(C)(C)C)OCOC(=O)C(C)(C)C)ccc3s2)C1 [Compound 313, ((((2-(((5S, 8S,10aR)-3-acetyl-8-((1-(methyl-sulfonyl)piperidin-4-yl)carbamoyl)-6-oxodecahydro-pyrrolo[1,2-a][1,5]diazocin-5-yl)carbamoyl)benzo[b]thiophen-5-yl)difluoro-methyl)phos-phoryl)bis(oxy)) bis(methylene) bis(2,2-dimethylpro-panoate)]
IC50 ([1]; Homo sapiens): > 3000 nM | IC50 ([2]; Homo sapiens): 1000 to 3000 nM

CC(=O)N1CC[C@H]2CC[C@@H](C(=O)N(C)c3ccc4nnccc4c3)N2C(=O)[C@@H](NC(=O)c2cc3cc(C(F)(F)P(=O)(OCOC(=O)C(C)(C)C)OCOC(=O)C(C)(C)C)ccc3s2)C1 [Compound 290, ((((2-(((5S,8S, 10aR)-3-acetyl-8-(cinnolin-6-yl(methyl)carbamoyl)-6-oxodecahydro-pyrrolo[1,2-a][1,5]diazocin-5-yl)carbamoyl)benzo[b]thiophen-5-yl)difluoro-methyl)phos-phoryl)bis(oxy)) bis(methylene) bis(2,2-dimethylpro-panoate)]
IC50 ([1]; Homo sapiens): 1000 to 3000 nM | IC50 ([2]; Homo sapiens): 100 to 1000 nM

CC(=O)N1CC[C@H]2CC[C@@H](C(=O)N3C[C@H](O)[C@@H](n4ccnn4)C3)N2C(=O)[C@@H](NC(=O)c2ccc3ccc(C(F)(F)P(=O)(OCCSC(=O)CC(C)C)OCCSC(=O)CC(C)C)cc3c2)C1 [Compound 305, S,S′-(((((7-(((5S,8S, 10aR)-3-acetyl-8-((3S,4S)-3-hydroxy-4-(1H-1,2,3-triazol-1-yl)pyrrolidine-1-carbonyl)-6-oxodecahydro-pyrrolo[1,2-a][1,5]diazocin-5-yl)carbamoyl)naphthalen-2-yl)difluoro-methyl)phos-phoryl)bis(oxy))bis(ethane-2,1-diyl)) bis(3-methylbutane-thioate)]
IC50 ([1]; Homo sapiens): 1000 to 3000 nM | IC50 ([2]; Homo sapiens): > 3000 nM

CC(=O)N1CC[C@H]2CC[C@@H](C(=O)Nc3ccc(S(C)(=O)=O)cc3)N2C(=O)[C@@H](NC(=O)c2cc3cc(C(F)(F)P(=O)(OCOC(=O)C(C)(C)C)OCOC(=O)C(C)(C)C)ccc3s2)C1 [Compound 314, ((((2-(((5S, 8S,10aR)-3-acetyl-8-((4-(methyl-sulfonyl)phenyl)carbamoyl)-6-oxodecahydro-pyrrolo[1,2-a][1,5]diazocin-5-yl)carbamoyl)benzo[b]thiophen-5-yl)difluoro-methyl)phos-phoryl)bis(oxy))bis (methylene) bis(2,2-dimethylpro-panoate)]
IC50 ([1]; Homo sapiens): 1000 to 3000 nM | IC50 ([2]; Homo sapiens): 100 to 1000 nM

CC(=O)N1CC[C@H]2CC[C@@H](C(=O)Nc3cnc(S(C)(=O)=O)nc3)N2C(=O)[C@@H](NC(=O)c2cc3cc(C(F)(F)P(=O)(OCOC(=O)C(C)(C)C)OCOC(=O)C(C)(C)C)ccc3s2)C1 [Compound 309, ((((2-(((5S, 8S,10aR)-3-acetyl-8-((2-(methyl-sulfonyl)pyrimidin-5-yl)carbamoyl)-6-oxodecahydro-pyrrolo[1,2-a][1,5]diazocin-5-yl)carbamoyl)benzo[b]thiophen-5-yl)difluoro-methyl)phos-phoryl)bis(oxy)) bis(methylene) bis(2,2-dimethylpro-panoate)]
IC50 ([1]; Homo sapiens): > 3000 nM | IC50 ([2]; Homo sapiens): 1000 to 3000 nM

CC(=O)N1CCC2CCC(C(=O)N3CC(c4ccccc4)CC34CC4)N2C(=O)C(NC(=O)c2ccc3ccc(C(F)(F)P(=O)(OCCSC(=O)CC(C)C)OCCSC(=O)CC(C)C)cc3c2)C1 [Compound 1, S,S′-(((((7-(((5S,8S,10aR)-3-acetyl-6-oxo-8-(6-phenyl-4-azaspiro[2.4]heptane-4-carbonyl)decahydropyrrolo[1,2-a][1,5]diazocin-5-yl)carbamoyl)naphthalen-2-yl)difluoromethyl)phosphoryl)bis(oxy))bis(ethane-2,1-diyl)) bis(3-methylbutanethioate)]
IC50 [1]: > 3000 nM | IC50 [2]: 100 to 1000 nM

CC(=O)N1CC[C@H]2CC[C@@H](C(=O)N(C)c3ccc(C#N)cc3)N2C(=O)[C@@H](NC(=O)c2cc3cc(C(F)(F)P(=O)(OCOC(=O)C(C)(C)C)OCOC(=O)C(C)(C)C)ccc3s2)C1 [Compound 316, ((((2-(((5S,8S, 10aR)-3-acetyl-8-((4-cyanophenyl) (methyl)carbamoyl)-6-oxodecahydro-pyrrolo[1,2-a][1,5]diazocin-5-yl)carbamoyl)benzo[b]thiophen-5-yl)difluoro-methyl)phos-phoryl)bis(oxy)) bis(methylene) bis(2,2-dimethylpro-panoate)]
IC50 ([1]; Homo sapiens): > 3000 nM | IC50 ([2]; Homo sapiens): 1000 to 3000 nM

CC(=O)N1CC[C@H]2CC[C@@H](C(=O)Nc3ccc(-c4ccccc4)cc3)N2C(=O)[C@@H](NC(=O)c2cc3cc(C(F)(F)P(=O)(OCOC(=O)C(C)(C)C)OCOC(=O)C(C)(C)C)ccc3[nH]2)C1 [Compound 308, ((((2-(((5S, 8S,10aR)-8-([1,1′-biphenyl]-4-ylcarbamoyl)-3-acetyl-6-oxodecahydro-pyrrolo[1,2-a][1,5]diazocin-5-yl)carbamoyl)-1H-indol-5-yl)difluoro-methyl)phos-phoryl)bis(oxy)) bis(methylene) bis(2,2-dimethylpro-panoate)]
IC50 ([1]; Homo sapiens): 100 to 1000 nM | IC50 ([2]; Homo sapiens): 100 to 1000 nM

CCCC(=O)SCCOP(=O)(OCCSC(=O)CCC)C(F)(F)c1ccc2ccc(C(=O)N[C@H]3CN(C(C)=O)CC[C@H]4CC[C@@H](C(=O)N5CC(c6cc[nH]c(=O)c6)CC56CC6)N4C3=O)cc2c1 (stereo partly drawn) [Compound 332, S,S′-(((((7-(((5S,8S,10aR)-3-acetyl-6-oxo-8-(6-(2-oxo-1,2-dihydropyridin-4-yl)-4-azaspiro[2.4]heptane-4-carbonyl)decahydropyrrolo[1,2-a][1,5]diazocin-5-yl)carbamoyl)naphthalen-2-yl)difluoromethyl)phosphoryl)bis(oxy))bis(ethane-2,1-diyl))dibutanethioate]
IC50 ([1]; Homo sapiens): > 3000 nM | IC50 ([2]; Homo sapiens): ≤ 100 nM
